Results as given in patent US9273043B2, “TRPV1 antagonists including dihydroxy substituent and uses thereof” (Purdue Pharma L.P., priority 2011, dated 2016).

Target: human TRPV1 (Homo sapiens (Human), UniProt Q8NER1)
Assay: pH-based assay, Protocol 2, TRPV1/CHO cells (hpH-CHO), Fura-2 Ca2+ influx
Assay type: cell-based
Details: pH 5.0-5.1 (H2SO4), mean ± SEM

Sequence of human TRPV1 (Q8NER1 whole entry, looked up): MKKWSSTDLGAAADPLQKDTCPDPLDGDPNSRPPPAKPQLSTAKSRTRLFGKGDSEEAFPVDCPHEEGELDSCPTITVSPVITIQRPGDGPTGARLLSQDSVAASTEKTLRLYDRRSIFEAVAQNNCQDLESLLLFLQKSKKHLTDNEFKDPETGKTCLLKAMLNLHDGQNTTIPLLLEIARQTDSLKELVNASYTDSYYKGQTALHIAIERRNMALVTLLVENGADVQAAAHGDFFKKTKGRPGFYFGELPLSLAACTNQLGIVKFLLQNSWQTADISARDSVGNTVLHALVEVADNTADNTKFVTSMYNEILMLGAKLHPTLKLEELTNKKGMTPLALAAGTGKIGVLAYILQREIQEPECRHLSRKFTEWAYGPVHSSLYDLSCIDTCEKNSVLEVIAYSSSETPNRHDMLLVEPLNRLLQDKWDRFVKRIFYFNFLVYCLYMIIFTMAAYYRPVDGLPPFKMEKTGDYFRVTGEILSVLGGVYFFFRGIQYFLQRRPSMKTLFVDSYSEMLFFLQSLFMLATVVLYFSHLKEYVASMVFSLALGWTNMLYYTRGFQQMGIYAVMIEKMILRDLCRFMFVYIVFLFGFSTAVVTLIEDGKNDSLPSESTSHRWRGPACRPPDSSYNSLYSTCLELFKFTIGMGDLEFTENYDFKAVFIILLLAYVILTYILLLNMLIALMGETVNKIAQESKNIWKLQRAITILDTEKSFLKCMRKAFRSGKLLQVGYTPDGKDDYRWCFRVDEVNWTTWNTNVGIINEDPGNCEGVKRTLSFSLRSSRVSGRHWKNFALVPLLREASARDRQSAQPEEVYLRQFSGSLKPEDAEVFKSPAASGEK

| IC50 [nM] | Compound |
| --- | --- |
| 98 ± 27 | C[C@H]1CN(c2ncc([C@H](O)CO)cc2F)CCN1C(=O)Nc1nc2ccccc2s1 [A122(a), (S)—N-(benzo[d]thiazol-2-yl)-4-(5-((S)-1,2-dihydroxyethyl)-3-fluoropyridin-2-yl)-2-methylpiperazine-1-carboxamide] |
| 17.1 | C[C@H]1CN(c2ncc([C@H](O)CO)cc2F)CCN1C(=O)Nc1nc2cc(F)c(F)cc2s1 [A158(a), (S)—N-(5,6-difluorobenzo[d]thiazol-2-yl)-4-(5-((S)-1,2-dihydroxyethyl)-3-fluoropyridin-2-yl)-2-methylpiperazine-1-carboxamide] |
| 136 ± 20 | C[C@H](O)[C@@H](O)c1cnc(N2CCN(C(=O)Nc3nc4cc(F)c(F)cc4s3)C[C@H]2C)c(F)c1 [B158(j), (R)—N-(5,6-difluorobenzo[d]thiazol-2-yl)-4-{5-[(1S,2S)-1,2-dihydroxypropyl]-3-fluoropyridin-2-yl}-3-methylpiperazine-1-carboxamide] |
| 17.4 ± 1.2 | C[C@H](O)[C@@H](O)c1cnc(N2CCN(C(=O)Nc3nc4ccc(F)cc4s3)CC2)c(Cl)c1 [C4(r), 4-{3-Chloro-5-[(1S,2S)-1,2-dihydroxypropyl]pyridin-2-yl}-N-(6-fluorobenzo[d]thiazol-2-yl)piperazine-1-carboxamide] |
| 69 ± 3 | C[C@H](O)[C@@H](O)c1cnc(N2CCN(C(=O)Nc3nc4ccc(F)cc4s3)CC2)c(F)c1 [C125(r), 4-(5-((1S,2S)-1,2-dihydroxypropyl)-3-fluoropyridin-2-yl)-N-(6-fluorobenzo[d]thiazol-2-yl)piperazine-1-carboxamide] |

More lines, now with the values behind:

| Compound | IC50 [nM] |
| --- | --- |
| C[C@@H]1CN(C(=O)Nc2nc3ccc(F)cc3s2)CCN1c1ncc([C@H](O)CO)cc1F [A125(b), (R)-4-{5-[(S)-1,2-dihydroxyethyl]-3-fluoropyridin-2-yl}-N-(6-fluorobenzo[d]thiazol-2-yl)-3-methylpiperazine-1-carboxamide] | 81 ± 13 |
| Cc1ccc2nc(NC(=O)N3CCN(c4ncc([C@H](O)CO)cc4F)C[C@@H]3C)sc2c1 [A126(a), (S)-4-(5-((S)-1,2-dihydroxyethyl)-3-fluoropyridin-2-yl)-2-methyl-N-(6-methylbenzo[d]thiazol-2-yl)piperazine-1-carboxamide] | 12.2 ± 5.9 |
| C[C@@H]1CN(C(=O)Nc2nc3cc(F)c(F)cc3s2)CCN1c1ncc([C@H](O)CO)cc1F [AE, (R)—N-(5,6-difluorobenzo[d]thiazol-2-yl)-4-{5-[(S)-1,2-dihydroxyethyl]-3-fluoropyridin-2-yl}-3-methylpiperazine-1-carboxamide] | 40.8 ± 3.2 |
| Cc1ccc2nc(NC(=O)N3CCN(c4ncc([C@H](O)[C@H](C)O)cc4F)CC3)sc2c1 [C126(r), 4-[5-((1S,2S)-1,2-Dihydroxy-propyl)-3-fluoro-pyridin-2-yl]piperazine-1-carboxylic acid (6-methyl-benzothiazol-2-yl)-amide] | 67 ± 12 |
| Cc1cc2nc(NC(=O)N3CCN(c4ncc([C@H](O)[C@H](C)O)cc4F)CC3)sc2cc1C [C170(r), 4-(5-((1S,2S)-1,2-dihydroxypropyl)-3-fluoropyridin-2-yl)-N-(5,6-dimethylbenzo[d]thiazol-2-yl)piperazine-1-carboxamide] | 32.8 ± 8.1 |
